target: T1, Solute carrier family 12 member 5 (Homo sapiens, UniProt Q9H2X9); experiment: concentration-response of KCC2 transport modulators – cell-based, HEK293 KCC2, FluoZin-2 fluorescence, dose response (AID 1736); conditions: not given
T1 sequence (Q9H2X9 whole entry): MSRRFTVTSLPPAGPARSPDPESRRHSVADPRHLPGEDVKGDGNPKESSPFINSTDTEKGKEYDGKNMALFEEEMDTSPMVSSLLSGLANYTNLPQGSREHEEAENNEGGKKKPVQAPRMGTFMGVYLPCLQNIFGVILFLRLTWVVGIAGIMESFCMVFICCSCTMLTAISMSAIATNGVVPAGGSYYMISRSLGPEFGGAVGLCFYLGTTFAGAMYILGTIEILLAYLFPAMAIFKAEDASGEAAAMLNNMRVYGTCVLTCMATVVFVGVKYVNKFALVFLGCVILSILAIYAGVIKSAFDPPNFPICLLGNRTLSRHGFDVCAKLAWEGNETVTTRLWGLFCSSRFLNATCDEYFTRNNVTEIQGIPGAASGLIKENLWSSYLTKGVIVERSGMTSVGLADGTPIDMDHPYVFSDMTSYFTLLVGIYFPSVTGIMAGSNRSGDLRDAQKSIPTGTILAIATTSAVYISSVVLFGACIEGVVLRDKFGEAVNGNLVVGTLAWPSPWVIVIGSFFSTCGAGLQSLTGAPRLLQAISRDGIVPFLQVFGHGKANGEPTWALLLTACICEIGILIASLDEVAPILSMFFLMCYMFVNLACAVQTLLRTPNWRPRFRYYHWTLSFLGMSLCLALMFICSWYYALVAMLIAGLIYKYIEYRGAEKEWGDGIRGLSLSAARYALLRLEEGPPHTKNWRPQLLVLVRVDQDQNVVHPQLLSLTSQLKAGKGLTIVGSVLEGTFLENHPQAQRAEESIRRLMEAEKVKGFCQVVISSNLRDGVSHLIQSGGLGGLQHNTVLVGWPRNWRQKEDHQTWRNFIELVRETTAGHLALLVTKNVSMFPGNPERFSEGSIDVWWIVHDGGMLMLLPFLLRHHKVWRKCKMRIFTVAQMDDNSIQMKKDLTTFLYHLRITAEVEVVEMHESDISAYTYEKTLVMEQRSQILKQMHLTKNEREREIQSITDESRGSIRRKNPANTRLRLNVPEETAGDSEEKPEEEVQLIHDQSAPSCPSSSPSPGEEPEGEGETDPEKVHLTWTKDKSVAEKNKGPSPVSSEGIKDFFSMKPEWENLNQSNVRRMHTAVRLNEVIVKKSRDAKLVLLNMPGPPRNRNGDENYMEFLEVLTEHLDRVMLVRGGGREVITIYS

Compound | EC50 [µM]
O=C1Nc2ccc([N+](=O)[O-])cc2OC1CCN1CCN(Cc2ccccc2)CC1 (configuration not stated) [2-[2-(4-benzylpiperazin-1-yl)ethyl]-7-nitro-4H-1,4-benzoxazin-3-one] | 15.1
CC(=O)NC(C)C(=O)OCC(=O)c1ccc(-c2ccccc2)cc1 (configuration not stated) [2-acetamidopropanoic acid [2-oxo-2-(4-phenylphenyl)ethyl] ester] | 7.92
COc1ccc(-c2nnc(S/C(=C/c3ccc(Cl)cc3)C(=O)O)o2)cc1 [(E)-3-(4-chlorophenyl)-2-[[5-(4-methoxyphenyl)-1,3,4-oxadiazol-2-yl]sulfanyl]prop-2-enoic acid] | 0.489
COc1cc(OC)c(C2=NOC(C(=O)NCCc3ccccc3)C2)cc1Cl (configuration not stated) [3-(5-chloranyl-2,4-dimethoxy-phenyl)-N-(2-phenylethyl)-4,5-dihydro-1,2-oxazole-5-carboxamide] | 6.25
CC(C)N1C(=O)S/C(=C/c2ccccc2OCc2ccc(C(=O)O)cc2)C1=O | 218
CCOC(=O)c1c(C)[nH]c(N=Nc2ccccc2)c1C [(5Z)-2,4-dimethyl-5-(phenylhydrazinylidene)-3-pyrrolecarboxylic acid ethyl ester] | 6.54
CC(C)(C)NC(=O)C(c1cccs1)N(CC1CCCO1)C(=O)c1ccc(-c2ccccc2)[nH]1 (configuration not stated) [N-[2-(tert-butylamino)-2-oxo-1-thiophen-2-ylethyl]-N-(2-oxolanylmethyl)-5-phenyl-1H-pyrrole-2-carboxamide] | 1.93
O=C(NCCc1cn2ccccc2n1)c1cc(COc2c(F)cccc2F)on1 [5-[(2,6-difluorophenoxy)methyl]-N-(2-imidazo[1,2-a]pyridin-2-ylethyl)-1,2-oxazole-3-carboxamide] | 7.6
COc1cccc(Nc2nnc(S)s2)c1 [5-(3-methoxyanilino)-3H-1,3,4-thiadiazole-2-thione] | 2.8
O=C(Cn1cnc2c(nnn2-c2ccccc2)c1=O)NCCc1ccccc1 [2-(7-keto-3-phenyl-triazolo[4,5-d]pyrimidin-6-yl)-N-phenethyl-acetamide] | 1.17
Cc1n[nH]c(O)c1C(c1ccc(-c2ccc(F)cc2)o1)c1c(C)n[nH]c1O [4-[[5-(4-fluorophenyl)furan-2-yl]-(3-methyl-5-oxo-1,2-dihydropyrazol-4-yl)methyl]-5-methyl-1,2-dihydropyrazol-3-one] | 14.3
O=c1c2ccccc2c(-c2nnc(S)o2)nn1Cc1ccccc1 [2-(phenylmethyl)-4-(2-sulfanylidene-3H-1,3,4-oxadiazol-5-yl)-1-phthalazinone] | 3.27
NC(=O)COc1ccccc1/C=C1/SC(=O)N(CC(=O)N2CCc3ccccc3C2)C1=O [2-[2-({3-[2-(3,4-dihydro-2(1H)-isoquinolinyl)-2-oxoethyl]-2,4-dioxo-1,3-thiazolidin-5-ylidene}methyl)phenoxy]acetamide] | 16.5
O=C(Cn1nc2ccccc2n1)NN=Cc1cc(Cl)cc([N+](=O)[O-])c1O [2-(2H-1,2,3-benzotriazol-2-yl)-N'-{5-chloro-2-hydroxy-3-nitrobenzylidene}acetohydrazide] | 28.4
Cc1nn(-c2ccc(F)cc2)c(C)c1NS(=O)(=O)c1ccc(Cl)cc1 [4-chloranyl-N-[1-(4-fluorophenyl)-3,5-dimethyl-pyrazol-4-yl]benzenesulfonamide] | 112
Cc1c(N=C2Nc3cccc4cccc2c34)c(=O)n(-c2ccccc2)n1C [4-(2-benzo[cd]indolylamino)-1,5-dimethyl-2-phenyl-3-pyrazolone] | 1.89

Compound | EC50 [µM]
COCCNS(=O)(=O)c1ccc(-c2ccc(Cl)cc2)cc1 [4'-chloro-N-(2-methoxyethyl)-4-biphenylsulfonamide] | 7.84
O=C(COC(=O)c1cc([N+](=O)[O-])ccc1NCc1ccccc1)NC1CCCCC1 [2-(benzylamino)-5-nitro-benzoic acid [2-(cyclohexylamino)-2-keto-ethyl] ester] | 4.56
Sc1nnc(Nc2ccccc2)s1 [5-anilino-3H-1,3,4-thiadiazole-2-thione] | 2.5
O=C(C1CC1)N1CCc2cc(S(=O)(=O)NC3CCN(Cc4ccccc4)CC3)ccc21 [1-[cyclopropyl(oxo)methyl]-N-[1-(phenylmethyl)-4-piperidinyl]-2,3-dihydroindole-5-sulfonamide] | 22.7
O=[N+]([O-])c1cc(-n2c(O)c3c(c2O)CCCC3)ccc1NC1CCN(Cc2ccccc2)CC1 [2-[3-nitro-4-[[1-(phenylmethyl)-4-piperidinyl]amino]phenyl]-3a,4,5,6,7,7a-hexahydroisoindole-1,3-dione] | 5.5
O=C(Cn1cnc2c(nnn2Cc2ccc(F)cc2)c1=O)N1CCN(c2ccccc2)CC1 [3-(4-fluorobenzyl)-6-[2-keto-2-(4-phenylpiperazino)ethyl]triazolo[4,5-d]pyrimidin-7-one] | 8.12
Cn1cc(C(=O)C(=O)N2CCCc3ccccc32)c2ccccc21 [1-(3,4-dihydro-2H-quinolin-1-yl)-2-(1-methyl-3-indolyl)ethane-1,2-dione] | 3.72
CCOc1[nH]n(-c2ccccc2)c(=O)c1C=Nc1ccc(F)cc1F [(4E)-4-[[[2,4-bis(fluoranyl)phenyl]amino]methylidene]-5-ethoxy-2-phenyl-pyrazol-3-one] | 0.0323
CC1Cc2ccccc2N1C(=O)CSc1nnnn1Cc1ccccc1 (configuration not stated) [1-(2-methyl-2,3-dihydroindol-1-yl)-2-[[1-(phenylmethyl)-1,2,3,4-tetrazol-5-yl]sulfanyl]ethanone] | 1.91
O=C(O)c1cc(-c2ccc(F)cc2F)ccc1O | 10.6
COC(=O)Cc1[nH]n(-c2nc3ccccc3s2)c(=O)c1C(C)=Nc1ccc(Cl)cc1 [methyl 2-[(4E)-1-(1,3-benzothiazol-2-yl)-4-[1-[(4-chlorophenyl)amino]ethylidene]-5-oxidanylidene-pyrazol-3-yl]ethanoate] | 77.3
Cc1ccc(-c2n[nH]c(=S)n2NC=CCc2ccccc2[N+](=O)[O-])cc1 | 1.8
O=C1OC(c2ccc(O)cc2)(c2ccc(O)cc2)c2ccccc21 | 3.29
Cc1cccc(OCCc2nnc(N)s2)c1C [5-[2-(2,3-Dimethyl-phenoxy)-ethyl]-[1,3,4]thiadiazol-2-ylamine] | 52.3
O=C(NCc1ccc2c(c1)OCO2)c1ccc(COc2cc(Cl)ccc2Cl)o1 [5-[(2,5-dichlorophenoxy)methyl]-N-piperonyl-2-furamide] | 6.51
CCN(CC)c1ccc2c(C)c(-c3ccc(N)cc3)c(=O)oc2c1 [3-(4-aminophenyl)-7-(diethylamino)-4-methyl-1-benzopyran-2-one] | 1.08

The remaining lines, values ahead:

EC50 [µM] | Compound
12.5 | N#Cc1ccccc1NC(=O)CSc1nccn1CCc1ccccc1 [MLS000051858]
0.304 | CCc1ccc(OCCNC(=O)c2ccccc2SCc2ccc(F)cc2)cc1 [MLS000577152]
7.34 | O=C(NCCc1csc(-c2ccccc2)n1)c1cccs1 [MLS000102716]
3.79 | O=C(CSc1nnc(-c2c[nH]c3ccccc23)o1)N1CCCCC1 [SMR000003748]
13700 | O=C(O)/C=C/c1cn(Cc2ccccc2)nc1-c1ccccc1 [MLS000567315]
4.25 | CCc1cc(C(=O)N2CCCC(CNC(=O)c3ccc(-c4ccccc4)cc3)C2)no1 (configuration not stated) [MLS000731765]
2.68 | Cn1c(C(=O)NCCN2CCN(c3ccccc3F)CC2)cc2c(=O)n(C)c3ccccc3c21 [MLS000118132]
3.93 | Cc1ccc(C(=O)Nc2nc(=O)n(C(=O)c3ccccc3Cl)s2)cc1 [MLS000540480]
7.48 | CNc1ccc(/C=C(\CCC(=O)O)c2nc3ccccc3s2)cc1[N+](=O)[O-] [MLS000394200]
0.806 | O=C(NNc1nc(-c2ccc(F)cc2)cs1)c1ccccc1 [MLS000763429]

same assay, conditions: inactive by the depositor's call

Compound | EC50 [µM]
CCCCC(c1nnnn1Cc1ccco1)N1CCN(c2nc3ccccc3s2)CC1 (configuration not stated) [2-[4-[1-[1-(2-furanylmethyl)-5-tetrazolyl]pentyl]-1-piperazinyl]-1,3-benzothiazole] | 9.22
CN(C)S(=O)(=O)N(CC(=O)NCCSCc1ccccc1)c1ccccc1 [2-[N-(dimethylsulfamoyl)anilino]-N-[2-(phenylmethylthio)ethyl]acetamide] | 18.7
Cc1cc(Cl)ccc1Oc1ccccc1C(=O)CC#N [3-[2-(4-chloranyl-2-methyl-phenoxy)phenyl]-3-oxidanylidene-propanenitrile] | 233

Now from value to compound:

EC50 [µM] | Compound
9.15 | N#C/C(=C\c1ccc(-c2cccc([N+](=O)[O-])c2)o1)C(=O)Nc1nc(-c2cccs2)cs1 [MLS000402444]
85.7 | Cc1nnc(NC(=O)c2ccc3ccccc3c2)o1 [MLS000056450]
